Consider four compounds from publication PMC5554537 (Frontiers in Pharmacology, 2017).

Data set [1] can be described thus: Metabolite profile in plasma, liver and HT29 tumor after i.p. SN30000. In kind it is in vivo, NIH-III mice. The conditions noted are these: SN30000 186 mg/kg i.p.; for Metabolite/SN30000 peak area, Tumor: HT29 tumor. The protocol:
Mouse plasma and tissue homogenates, prepared from tissue samples in two volumes of ice-cold PBS using a TissueLyser II (Qiagen Sciences, Germantown, MD, United States) with 30 Hz oscillation frequency for 1 min, were processed by precipitating proteins with 3 vol MeOH and centrifuging (13,000 g, 4°C for 10 min). Supernatants were diluted into 3 vol water and analyzed with an Agilent model 6460 LC-MS/MS with an in-line photodiode array absorbance detector. Chromatographic separation was performed on a Zorbax Eclipse C18 column (100 mm × 3.0 mm, 1.8 μm; Agilent Technologies) at 35°C with a flow rate of 0.6 mL/min, with positive or negative mode electrospray ionization. The mobile phase was a gradient constructed using 80% MeCN/20% water/0.1% formic acid v/v/v (A) and 0.1% formic acid in water (B) from 10% A to 80% A with a total run time of […]. The gradient profile was: 0–4 min, 10% A; 4–11 min linear increase to 60% A; 11–12 min to 80% A; held for 1 min, returned to 10% A over 0.5 min and held for 2 min before the next sample injection. Absorbance spectra were collected from 230 to 600 nm with a reference wavelength of 550 nm. The mass/charge (m/z) ratio was scanned from 100 to 800 with a fragmentor voltage of 120 V. MS^2 with various collision energies was used for further characterization of some metabolites.
Metabolites were investigated in plasma, liver and HT29 tumors following i.p. dosing of female NIH-III mice with SN30000 at 186 mg/kg, which represents its previously determined MTD for this route and mouse strain ([Gu et al., 2014]). Representative chromatograms are shown in Supplementary Figure 1. A total of 19 metabolites (M1–M19) were provisionally identified (Figure 1 and Table 1). Assignments were confirmed by comparison with synthetic standards in the case of the 1-oxide M14 and nor-oxide M13, which have previously been reported as murine metabolites of SN30000 ([Wang et al., 2012]) and for M15 which is known to be the major photodegradation product of SN30000 ([Gu et al., 2014]). In addition, the previously unreported metabolite M18, which is the main plasma metabolite at late times, was isolated from pooled plasma of mice dosed with M14 in sufficient quantity for characterization by NMR (Supplementary Data). This identified M18 as an oxidation product of M14 with an alkanoic acid side-chain (Figure 1), an assignment that was confirmed by synthesis of the authentic compound which was identical by HPLC retention time, absorbance spectrum, elemental analysis, mass spectrum and NMR spectroscopy.

The nature of the next data set: in vivo. The conditions noted are these: NIH-III, mouse, ip, 186 mg/kg.
The next data set deals with SiHa cells. The data set is described as follows: Oxygen consumption rate, Seahorse XFe96 analyser. In kind it is cell-based, human. The conditions noted are these: 200 µM, mitochondrial stress test. The method, then: (OCR) of the human cervical carcinoma cell line SiHa and a previously described (Guise et al., 2007) POR-overexpressing transfectant SiHa/POR, determined using a Seahorse XFe96 Analyser (Agilent). Cells were passaged in αMEM plus 5% FCS, with 1 µM puromycin to maintain POR expression in the SiHa/POR cell line. Cells were ty pically seeded at 4×10^4 cells/well in Seahorse 96 well plates (without puromycin) and ~ 18 hr later the medium was changed to Seahorse medium with 10 mM glucose and 2 mM glutamine (SMGG) adjusted to pH 7.35 (150 µl/well). Plates were degassed to remove CO2, and inhibitors were added serially using the Seahorse injectors (25 µl/injection) with rotenone (final concentration 0.5 µM) typically added at the start of the 30 min equilibration in the flux analyser. OCR was monitored for three 3 min periods following each drug addition. […]
injection 1 and at each subsequent injection to maintain concentrations at 200 µM continuously during the test. The control received equivalent injections of SMGG without drugs. In all cases (including controls), injection 2 added oligomycin to give 0.5 µM, injection 3 added carbonyl cyanide […] (FCCP) to 0.5 µM, and injection 4 added rotenone and antimy cin to 1 µM each. V alues are means and errors are standard deviations, for 6 replicate cultures. […]
suppressed by M14, both in the presence (injection 1) and absence (injection 4) of respiratory […]
presence or absence of 0.5 µM rotenone when SN30000 is added cumulatively to give the indicated concentrations. Values are means and SEM for 5 replicate cultures. The fall in OCR after transient stimulation at each addition of SN30000 is consistent with the pattern for CHO/POR cells in Supplementary Fig. 4A.
C: Concentration dependence of increases in OCR by SiHa/POR cells, measured at the first […]
effects noted above. Left panel: SN30000. Right panel: TPZ. Values are means and errors are […]

Another data set deals with NIH-III mice. The experiment in a line: Mouse toxicity: MTD, survival and body weight loss after single i.p. doses. Conditions: for Survival: 14 days. Type of data set: in vivo. From the text:
(§1) Mouse toxicity SN30000 and metabolites M14 and M18: survival and body weight loss following single i.p. doses to NIH-III mice.
(§2) Cmpd Dose Body weight nadir Body weight nadir
(§3) (µmol/kg) Survivala Survivala
(§4) Day Weight loss (%)b Day Weight loss (%)b […]
(§5) a Survival reported as a fraction of total nu mber of animal treated at a giv en dose, with an observation time of 14 days. Deaths were predominantly due to humane ter mination because of persistent clinical signs or body weight loss > 15% of pretreatment values. b Body weig ht loss at nadir, relative to pre-treatment values. Values are mean and errors are […]
(§6) c Data from Gu et al., 2014 d Mouse died <24 hr after dosing.

Experiment in data set [2]: as above
The conditions noted are these: mouse, in vivo, ip, NIH-III mice; for MTD at 14 days: both sexes, single i.p. dose. Type of data set: in vivo, NIH-III mice.
Excerpt: as §1, §2, §3, §4, §5, §6

[3] abbreviates: in vivo, i.p. SN30000 186 mg/kg, plasma, non-tumour-bearing mice.
Where [4] appears, read: in vivo, Elimination half-life, i.p. SN30000 186 mg/kg, all tissues except tumors.
Where [5] appears, read: in vivo, Terminal T1/2, i.p. SN30000 186 mg/kg, HT29 tumour, tumour-bearing mice.
The mark [6] stands for this setting: in vivo, Terminal T1/2, i.p. SN30000 186 mg/kg, brain, non-tumour-bearing mice.
Setting [7] is: in vivo, Terminal T1/2, i.p. SN30000 186 mg/kg, liver, HT29 tumour-bearing mice.
[8] abbreviates: in vivo, Terminal T1/2, i.p. SN30000 186 mg/kg, liver, non-tumour-bearing mice.
The mark [9] stands for this setting: in vivo, Terminal T1/2, i.p. SN30000 186 mg/kg, plasma, HT29 tumour-bearing mice.
Where [10] appears, read: in vivo, Terminal T1/2, i.p. SN30000 186 mg/kg, plasma, non-tumour-bearing mice.
Setting [11] is: in vivo, i.p. SN30000 186 mg/kg, plasma, HT29 tumour-bearing mice.

Experimental for in vivo: M18 was quantified by absorbance detection with reference to an external standard calibration curve.
Concentration-time data were analyzed by non-compartmental analysis using Phoenix WinNonlin (ver 6.4, Build 6.4.0768 Pharsight, United States); all AUC values were extrapolated to infinity using the linear trapezoidal rule.
SN30000, M14 and M13 were quantified by LC-MS/MS using stable isotope internal standards, while M18 was quantified by absorbance detection using external standard calibration curves.

Regarding `c1c2c(cc3nc(CCCN4CCOCC4)nnc13)CCC2` [M13], the “Metabolite/SN30000 peak area, Tumor” value in data set [1] was found to be 0.11. Further, the “Metabolite/SN30000 peak area, Liver” value in data set [1] turned out to be 1.50. The “Metabolite/SN30000 peak area, Plasma” value in data set [1] was 0.08. In addition, the half-life in “in vivo” (HT29 tumour, Terminal T1/2, i.p. SN30000 186 mg/kg, tumour-bearing mice) is 126 min; in the data set “in vivo” (all tissues except tumors, Elimination half-life, i.p. SN30000 186 mg/kg) it was approximately 30 min; in “in vivo” (brain, Terminal T1/2, i.p. SN30000 186 mg/kg, non-tumour-bearing mice) it was 34.9 min; in “in vivo” (liver, Terminal T1/2, i.p. SN30000 186 mg/kg, HT29 tumour-bearing mice), 52.4 min; in the data set “in vivo” (liver, Terminal T1/2, i.p. SN30000 186 mg/kg, non-tumour-bearing mice), 42.1 min; in “in vivo” (plasma, Terminal T1/2, i.p. SN30000 186 mg/kg, HT29 tumour-bearing mice), 53.2 min. In “in vivo” (plasma, Terminal T1/2, i.p. SN30000 186 mg/kg, non-tumour-bearing mice), this compound showed a half-life of 42.4 min. Further, the time to peak (Tmax) in “in vivo” was not above 5 min.

For `[O-][n+]1nc(CCCN2CCOCC2)nc2cc3c(cc21)CCC3` [M14], the “Metabolite/SN30000 peak area, Tumor” value in data set [1] came out at 0.41. Moreover, the “Metabolite/SN30000 peak area, Liver” value in data set [1] is on record as 5.18. Also, the “Metabolite/SN30000 peak area, Plasma” value in data set [1] is 0.35. Besides, the “Effect on oxygen consumption rate (OCR)” value in the data set on SiHa cells is “suppressed”. In the data set “in vivo” (in vivo), the Tmax is not above 5 min. The Cmax in the data set “in vivo” (setting [3]) came to 36.1 ± 5.5 µM. In addition, the half-life is approximately 30 min in the data set “in vivo” (setting [4]); 94.8 min in “in vivo” (setting [5]); 32.1 min in the data set “in vivo” (setting [6]); 42.7 min in “in vivo” (setting [7]); 40.5 min in “in vivo” (setting [8]); 40.6 min in the data set “in vivo” (setting [9]). Also, the half-life in “in vivo” (setting [10]) was 37.8 min. Also, the “Body weight nadir, Day” value with NIH-III mice (female, 562 µmol/kg i.p.) was determined as 3; in the data set with NIH-III mice (male, 562 µmol/kg i.p.) it was 1; with NIH-III mice (male, 1000 µmol/kg i.p.), 1. Further, the “Body weight nadir, Weight loss” value with NIH-III mice (female, 562 µmol/kg i.p.) came out at 2.6 ± 0.4%; in the data set on NIH-III mice (male, 562 µmol/kg i.p.), 0.7 ± 0.5%; with NIH-III mice (male, 1000 µmol/kg i.p.), 2.0%. Also, the Survival was 3/3 with NIH-III mice (female, 562 µmol/kg i.p.); 0/1 in the data set with NIH-III mice (female, 750 µmol/kg i.p.); 3/3 in the data set with NIH-III mice (male, 562 µmol/kg i.p.); 0/2 in the data set with NIH-III mice (male, 750 µmol/kg i.p.); 1/1 in the data set with NIH-III mice (male, 1000 µmol/kg i.p.). The results for the MTD at 14 days in data set [2] and in data set [2] (equivalent to 562 μmol/kg) were 562 µmol/kg and 177 mg/kg, respectively. Besides, the MTD at 2 weeks in data set [2] (as stated for the temperature study (Figure 4)) worked out at 135 mg/kg.

As for `O=C(O)CCc1nc2cc3c(cc2[n+]([O-])n1)CCC3` [M18], the “Metabolite/SN30000 peak area, Tumor” value in data set [1] is given as 1.63. Moreover, in data set [1], the “Metabolite/SN30000 peak area, Liver” value came to 0.60. The “Metabolite/SN30000 peak area, Plasma” value in data set [1] is on record as 1.14. In addition, the values for the Cmax in “in vivo” (setting [11]) and in the data set “in vivo” (setting [3]) were 139 ± 6 µM and 119 ± 3 µM, respectively. The half-life in the data set “in vivo” (setting [7]) worked out at 392 min; in “in vivo” (setting [8]) it was 183 min; in “in vivo” (setting [9]) it was 960 min; in “in vivo” (setting [10]), 173 min. Besides, in the data set on NIH-III mice (female, 562 µmol/kg i.p.), the “Body weight nadir, Weight loss” value was “No decrease in body weight”. Also, the Survival in the data set on NIH-III mice (female, 562 µmol/kg i.p.) is on record as 3/3.

With `[O-][n+]1nc(CCCN2CCOCC2)[n+]([O-])c2cc3c(cc21)CCC3` [SN30000, 3-(3-Morpholinopropyl)-7,8-dihydro-6H-indeno[5,6-e][1,2,4]triazine 1,4-dioxide], in data set [1], the “Metabolite/SN30000 peak area, Tumor” value is 1.00. Further, in data set [1], the “Metabolite/SN30000 peak area, Liver” value stood at 1.00. Moreover, the “Metabolite/SN30000 peak area, Plasma” value in data set [1] worked out at 1.00. The “Effect on oxygen consumption rate (OCR)” value in the data set on SiHa cells is recorded as “increased”. Besides, the Tmax in the data set “in vivo” (in vivo) is not above 5 min. For the same compound, the values for the Cmax in the data set “in vivo” (setting [11]) and in “in vivo” (setting [3]) were 217 ± 18 µM and 210 ± 9 µM, respectively. Moreover, the half-life in “in vivo” (setting [4]) is approximately 30 min; in the data set “in vivo” (setting [5]), 36.2 min; in the data set “in vivo” (setting [6]) it was 26.4 min; in “in vivo” (setting [7]) it was 35.7 min; in “in vivo” (setting [8]) it was 44.3 min; in the data set “in vivo” (setting [9]), 33.9 min. The compound further showed a half-life in the data set “in vivo” (setting [10]) of 32.7 min. Also, the MTD at 14 days in data set [2] was 562 µmol/kg; in data set [2] (equivalent to 562 μmol/kg) it was 186 mg/kg.

A word on the half-life: it is the time needed for the level to fall by half in the phase considered. By Tmax is commonly meant the time at which the peak concentration occurs. The term Cmax denotes the maximum level reached in the sampled fluid or tissue.
